Source: patent US5527832A, “Antiinflammatory and analgesic transdermal gel” (priority 1994, dated 1996)

Assays:
[1] = Gastric ulcer formation (Experiment 4); type: in vivo, male Sprague-Dawley rats; conditions: 10 mg/kg
Description: Male Sprague-Dawley rats weighing around 200 g were used as the test animals. […] As a reference, the rats of the control group were administrated ketoprofen orally as a suspension in physiological saline at the dose of 10 mg/kg. Six hours after the administration, the rats were sacrificed and ulcer formation in the stomach was scored as follows: 0; normal, 1; reddened mucosa, 2; one to four small ulcer (smaller than 2 mm in diameter). 3; more than four small ulcer or one large ulcer (larger than 2 mm in diameter), 4; more than one large ulcer. The score of two or higher was regarded as ulcer formation.

[2] = postdose, oral administration to rats; cited from earlier work

| Structure (SMILES) | Average ulcer score ([1]; rat, in vivo, po) | No. of rat ulcer is produced ([1]; rat, in vivo, po) | Time of maximum concentration of ketoprofen [2] [h] | No. of rat ulcer is produced ([1]; oral, 6 h after administration) | Average ulcer score ([1]; oral, 6 h after administration, score 0-4) |
| --- | --- | --- | --- | --- | --- |
| CC(C(=O)O)c1ccc(-c2ccccc2)c(F)c1 (stereo not shown) [flurbiprofen] | 2.46 | 5/6 | – | – | – |
| CC(C)Cc1ccc(C(C)C(=O)O)cc1 (stereo not shown) [ibuprofen] | 2.53 | 6/6 | – | – | – |
| CC(C(=O)O)c1cccc(C(=O)c2ccccc2)c1 (stereo not shown) [ketoprofen] | – | – | 0.25 to 0.5 | 6/6 | 2.91 |
